Type in all cases: in vivo
Common to all, as to details: rated four to five weeks after treatment

Assay [1] has as its system ABUTILON THEOPHRASTI, MEDIC. The experiment in a line: Postemergence herbicidal evaluation, ABUTH (Velvetleaf). The method, then: In the tests, seedling plants are grown in jiffy flats for about two weeks. The test compounds are dispersed in 50/50 acetone/water mixtures containing 0.5% TWEEN®20, a polyoxyethylene sorbitan monolaurate surfactant of Atlas Chemical Industries, in sufficient quantities to provide the equivalent of about 0.125 kg to 0.500 kg per hectare of active compound when applied to the plants through a spray nozzle operating at 40 psi for a predetermined time. After spraying, the plants are placed on greenhouse benches and are cared for in the usual manner, commensurate with conventional greenhouse practices. From four to five weeks after treatment, the seedling plants are examined and rated according to the rating system set forth below. Where more than one test is involved for a given compound, the data are averaged.
(§1) Results of herbicide evaluation are expressed on a rating scale (0-9). The scale is based upon a visual observation of plant stand, vigor, malformation, size, chlorosis and overall plant appearance as compared with a control.

For assay [2], the system named is CHENOPODIUM ALBUM, L. The experiment in a line: Preemergence herbicidal evaluation, CHEAL (Lambsquarters, Common).
From the text: as §1
(§2) The preemergence herbicidal activity of the test compounds of the present invention is exemplified by the following tests in which the seeds of a variety of monocotyledonous and dicotyledonous plants are separately mixed with potting soil and planted on top of approximately one inch of soil in separate pint cups. After planting, the cups are sprayed with the selected aqueous acetone solution containing test compound in sufficient quantity to provide the equivalent of about 0.125 to 0.50 kg per hectare of test compound per cup. The treated cups are then placed on greenhouse benches, watered and cared for in accordance with conventional greenhouse procedures. From four to five weeks after treatment, the tests are terminated and each cup is examined and rated according to the rating system provided in Example 42.

Assay [3] concerns IPOMOEA SPP. Briefly: Preemergence herbicidal evaluation, IPOSS (Morningglory Spp.).
From the text: as §1, §2

Assay [4] has as its system ECHINOCHLOA CRUS-GALLI, (L) BEAU. The experiment in a line: Preemergence herbicidal evaluation, ECHCG (Barnyardgrass).
From the text: as §1, §2

Assay [5] concerns SETARIA VIRIDIS, (L) BEAU. Briefly: Preemergence herbicidal evaluation, SETVI (Foxtail, Green).
From the text: as §1, §2

In assay [6] the test system is GLYCINE MAX(L)MERR. CV. WILLIAMS
Briefly: Preemergence herbicidal evaluation, GLXMAW (Soybean, Williams).
From the text: as §1, §2

Assay [7] relates to TRITICUM AESTIVUM, CV. APOLLO. Briefly: Preemergence herbicidal evaluation, TRZAWO (Wheat, Winter, CV. APOLLO).
From the text: as §1, §2

Assay [8] concerns GALIUM APARINE. Briefly: Preemergence herbicidal evaluation, GALAP (Galium).
From the text: as §1, §2

Assay [9] relates to ORYZA SATIVA, L. TEBONNET
Briefly: Preemergence herbicidal evaluation, ORYSAT (Rice, Tebonnet).
From the text: as §1, §2

The test system of assay [10] is ZEA MAYS L. The experiment in a line: Preemergence herbicidal evaluation, ZEAMX (Corn, Field).
From the text: as §1, §2

For the compound `Cn1c(=O)n(CC(=O)OC(C)(C)C)c(=O)n(-c2cc(N3C(=O)C4=C(CCCC4)C3=O)c(F)cc2Cl)c1=O` [Compound 2, Tert-butyl 3-[2-chloro-5-(1-cyclohexene-1,2-dicarboximido)-4-fluorophenyl]tetrahydro-5-methyl-2,4,6-trioxo-s-triazine-1(2H)-acetate], the “Herbicide rating (0-9) ABUTH” value in assay [1] (0.125 kg/ha), in assay [1] (0.250 kg/ha) and in assay [1] (0.500 kg/ha) was 9.0 each time. Besides, the “Herbicide rating (0-9) CHEAL” value in [2] (0.125 kg/ha), in assay [2] (0.250 kg/ha) and in assay [2] (0.500 kg/ha) was 9.0 throughout. Besides, the “Herbicide rating (0-9) IPOSS” value in [3] (0.125 kg/ha), in [3] (0.250 kg/ha) and in assay [3] (0.500 kg/ha) was 6.0 throughout. The “Herbicide rating (0-9) ECHCG” value in assay [4] (0.125 kg/ha), in assay [4] (0.250 kg/ha) and in [4] (0.500 kg/ha) was 0.0 in each case. The “Herbicide rating (0-9) SETVI” value in [5] (0.125 kg/ha), in [5] (0.250 kg/ha) and in assay [5] (0.500 kg/ha) was 0.0 in each case. The “Herbicide rating (0-9) GLXMAW” value in assay [6] (0.125 kg/ha), in assay [6] (0.250 kg/ha) and in assay [6] (0.500 kg/ha) was 0.0 throughout. The “Herbicide rating (0-9) TRZAWO” value in assay [7] (0.125 kg/ha), in assay [7] (0.250 kg/ha) and in assay [7] (0.500 kg/ha) was 1.0 throughout.

`COC(=O)Cn1c(=O)n(C)c(=O)n(-c2cc(N3C(=O)C4=C(CCCC4)C3=O)c(F)cc2Cl)c1=O` [Compound 1, Methyl 3-[2-Chloro-5-(1-cyclohexene-1,2-dicarboximido)-4-fluorophenyl]tetrahydro-5-methyl-2,4,6-trioxo-s-triazine-1(2H)-acetate]: the “Herbicide rating (0-9) ABUTH” value in [1] (0.125 kg/ha), in assay [1] (0.250 kg/ha) and in assay [1] (0.500 kg/ha) was 9.0 throughout. In addition, the “Herbicide rating (0-9) CHEAL” value in assay [2] (0.125 kg/ha), in [2] (0.250 kg/ha) and in [2] (0.500 kg/ha) was 9.0 throughout. Besides, the “Herbicide rating (0-9) GALAP” value in assay [8] (0.250 kg/ha) and in assay [8] (0.500 kg/ha) was 0.0 throughout. The “Herbicide rating (0-9) GLXMAW” value in [6] (0.125 kg/ha), in assay [6] (0.250 kg/ha) and in [6] (0.500 kg/ha) was 0.0 in each case. Moreover, the “Herbicide rating (0-9) ORYSAT” value in [9] (0.125 kg/ha), in assay [9] (0.250 kg/ha) and in [9] (0.500 kg/ha) was 0.0 each time. The “Herbicide rating (0-9) TRZAWO” value in assay [7] (0.125 kg/ha), in assay [7] (0.250 kg/ha) and in assay [7] (0.500 kg/ha) was 0.0 each time. Also, the “Herbicide rating (0-9) ZEAMX” value in assay [10] (0.125 kg/ha), in [10] (0.250 kg/ha) and in [10] (0.500 kg/ha) was 0.0 in each case.

Values taken from patent publication EP0745599A2, “1-(3-Heterocyclylphenyl)-s-triazine-2,4,6-oxo or thiotrione herbicidal agents” (American Cyanamid Company, priority 1995, dated 1996).
